We go through one molecule from EP3502102A1, “STING INHIBITORS” (ECOLE POLYTECHNIQUE FEDERALE DE LAUSANNE (EPFL), priority 2017, dated 2019).

The structures appear in SMILES notation.

One assay addresses T1, STING (Mus musculus, UniProt Q3TBT3).
T1 sequence (Q3TBT3 1-378): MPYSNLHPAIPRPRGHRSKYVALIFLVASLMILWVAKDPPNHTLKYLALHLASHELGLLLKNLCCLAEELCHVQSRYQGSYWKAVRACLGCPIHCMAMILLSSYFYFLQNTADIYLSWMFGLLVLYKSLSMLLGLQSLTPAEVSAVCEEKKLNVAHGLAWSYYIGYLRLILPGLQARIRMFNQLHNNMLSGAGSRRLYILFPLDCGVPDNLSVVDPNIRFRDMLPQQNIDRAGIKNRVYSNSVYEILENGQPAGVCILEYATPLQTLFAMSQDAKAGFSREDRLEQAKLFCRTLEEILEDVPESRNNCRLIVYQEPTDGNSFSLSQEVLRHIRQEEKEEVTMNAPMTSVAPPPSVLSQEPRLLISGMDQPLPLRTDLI
In words: Metabolic labelling with [3H] palmitate, Flag-STING in HEK293T cells. It is filed as cell-based. On the set-up: expressed in transfected cells; host or cells: HEK293T. As to conditions: HEK293T expressing Flag-STING; 1 µM; CMA 2 h. How it is done: Reporter activity was measured 16 h after compound treatment. A nonlinear regression analysis was performed. […] Circles indicate substitutes compared to C-176. d, e, Chemical compounds from (c) were tested at 0.5 µM for inhibitory activity in HEK293T cells transfected with STING (e) or RIG-I (f) in conjunction with IFN-• luciferase reporter, respectively. b, e, f, Values of inhibitor-treated cells were normalized to DMSO-treated cells. […] Cytokine levels were normalized to DMSO-treated control cells. A nonlinear regression analysis was performed for cGAMP stimulation. b, c, BMDMs were pre-treated with C-178 (0.25 µM) and stimulated with cGAMP, cyclic di-GMP, CMA, 90mer dsDNA or LPS for 3 h. The induction of Ifnb1 mRNA levels was assessed by RT-qPCR. d, Heatmaps of RNA sequencing analysis of BMDMs treated with DMSO or CMA and with or without addition of C-178. […] Reporter activity was measured 16 h after transfection and values were normalized to DMSO-treated control cells. c, BMDMs were treated with C-178 (0.25 µM) for 1 h, washed or left untreated and after an additional hour stimulated with cGAMP. […] Flag-STING was immunoprecipitated from whole cell lysate and analysed by autoradiography. In parallel, cell lysates were analysed by immunoblotting for p-TBK1 and STING. d, HEK293T cells expressing STING were treated as indicated (C-178 (1 µM)) and stimulated with CMA for 1.5 h. […]

The next assay has as its target T2, TBK1 (Homo sapiens, UniProt Q9UHD2).
T2 construct: expressed in transfected cells; host or cells: HEK293T
T2 sequence (Q9UHD2 1-729): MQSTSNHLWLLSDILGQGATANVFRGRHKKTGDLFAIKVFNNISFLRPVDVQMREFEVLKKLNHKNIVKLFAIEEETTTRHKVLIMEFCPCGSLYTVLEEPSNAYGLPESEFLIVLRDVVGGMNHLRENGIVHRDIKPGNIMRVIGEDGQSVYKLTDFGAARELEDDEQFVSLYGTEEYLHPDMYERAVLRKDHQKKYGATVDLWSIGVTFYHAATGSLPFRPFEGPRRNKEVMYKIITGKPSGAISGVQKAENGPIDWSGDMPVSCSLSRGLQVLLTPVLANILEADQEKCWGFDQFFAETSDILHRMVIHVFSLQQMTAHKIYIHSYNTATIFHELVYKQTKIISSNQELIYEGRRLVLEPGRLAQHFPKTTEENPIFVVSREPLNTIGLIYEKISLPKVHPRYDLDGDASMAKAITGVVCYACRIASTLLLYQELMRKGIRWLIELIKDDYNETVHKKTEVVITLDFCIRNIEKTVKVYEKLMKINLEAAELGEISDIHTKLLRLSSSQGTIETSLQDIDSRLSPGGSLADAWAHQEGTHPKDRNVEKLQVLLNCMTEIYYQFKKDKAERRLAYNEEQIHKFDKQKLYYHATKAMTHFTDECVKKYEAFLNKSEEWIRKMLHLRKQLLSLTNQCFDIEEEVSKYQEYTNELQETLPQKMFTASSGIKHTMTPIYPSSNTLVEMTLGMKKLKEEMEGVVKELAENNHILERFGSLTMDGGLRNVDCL
Put plainly: IFN-beta luciferase reporter in HEK293T cells transfected with TBK1. It is filed as cell-based. As to conditions: 0.01-5µM. (In general: In a reporter assay the amount or activity of a reporter protein is the signal.)

Turning to `O=C(Nc1ccc(I)cc1)c1ccc([N+](=O)[O-])o1` [C-176, N-(4-iodophenyl)-5-nitro-2-furamide], the “[^3H] palmitate labelling of STING” value at STING was “inhibited”. Further, the “TBK1-driven IFN induction” value at TBK1 is recorded as “neither RIG-I nor TBK1-driven IFN induction was affected”.
